# Patent US20080103205A1, “Pesticidal compositions and methods of use” (priority 2006, published 2008)
# Read-outs that look alike come from different tables or passages of the source.
# Legend:
# [1] = test system: European corn borer (Ostrinia nubilalis); experiment: Diet surface test on European corn borer larvae (2nd instar); type: in vivo; settings: for No. dead: 10 larvae; for mortality at 6.25 ppm / mortality at 12.5 ppm / mortality at 25 ppm / mortality at 50 ppm: Ostrinia nubilalis
# Experimental: Concentrations of 6.25, 12.5, 25, or 50 ppm AT blocker were prepared in 95% ethyl alcohol (EtOH). 95% EtOH alone served as control. European corn borer (ECB) diet prepared from the powdered diet supplied by French Agricultural Research, Inc. Diet (1-2 ml) was poured into small cups and allowed to cool to room temperature. Test solution (100 ul) was placed onto the diet surface and allowed to evaporate the solvent. Each concentration of chemical had 2 sets of 10 cups each. One late 2nd instar larva was placed in each cup and covered with lid having perforations for aeration. Cups were placed in an incubator for 7 days at 25±1° C. and 70±5% RH. After seven days, the weight of each larva was taken and any mortality was recorded. Then, the surviving larvae were transferred to fresh diet cups holding sufficient diet (5-6 ml) without chemicals and incubated at 25±1° C. and 70±5% RH until pupation. Weights of larvae were taken 14 days after transferring to fresh diet (21 days after start of treatment). Finally, the number of days until pupation was recorded.
# Anion transporters caused larval death and a reduction in weight gain within 7 days exposure. The effect persisted for 2 weeks time on untreated diet, but total time to pupation was relatively unaffected.
# Caenorhabditis elegans = experiment: Toxicity test, adult Caenorhabditis elegans, 96 well micro plate; type: in vivo; settings: Caenorhabditis elegans
# Experimental: Methodology: Toxicity tests were conducted using J2 juveniles of Meloidogyne incognita adult Caenorhabditis elegans collected from nematode-infested tomato plant roots and culture Petri plates, respectively. Test concentrations of 50, 100, 200, 300, or 400 ppm were prepared in 0.2% dimethylsulfoxide (DMSO) in tap water. Aliquots (300 microliters (ul)) were applied to a 96 well micro plate and a 20 ul aqueous solution containing nematodes was added. The number of nematodes in 20 ul ranged from 17 to 30. Micro plates were sealed with Parafilm™ and incubated at room temperature. Similar tests conducted with 0.2% DMSO in tap water served as controls. Nematode mortality was checked at 24, 48, 72, 120, and 168 hr after incubation. Nematodes that were motionless for 30 sec when observed under a stereomicroscope were considered paralyzed and included in mortality counts. Each concentration was replicated five times and mean percent mortality was calculated after correcting for control mortality using Abbott's formula.
# Data Analysis: Mortality data were analyzed using PROC PROBIT (SAS) program and LC50 values were estimated.
# [2] = 6.25 ppm, 21 days after feeding
# [3] = 12.5 ppm, 21 days after feeding
# [4] = 168 h, 6.25 ppm, 7 days after feeding
# [5] = 168 h, 12.5 ppm, 7 days after feeding
# [6] = 504 h, 6.25 ppm, 21 days after feeding
# [7] = 504 h, 12.5 ppm, 21 days after feeding
# [8] = 504 h, 50 ppm, 21 days after feeding
# [9] = 24 h, read-out: Corrected Mortality (%)
# [10] = 48 h, read-out: Corrected Mortality (%)
# [11] = 72 h, read-out: Corrected Mortality (%)
# [12] = 120 h, read-out: Corrected Mortality (%)
# [13] = 168 h, read-out: Corrected Mortality (%)
structure (smiles),measurement,setting,value
"O=C(O)c1c2ccccc2cc2ccccc12 [9-AC, anthracene-9-carboxylic acid]",No. dead,"[1]; 6.25 ppm, 7 days after feeding",0
same,No. dead,[1]; [2],0
same,No. dead,"[1]; 12.5 ppm, 7 days after feeding",0
same,No. dead,[1]; [3],0
same,Days for pupation,[1]; 25 ppm,26.0 days
same,No. dead,"[1]; 25 ppm, 7 days after feeding",0
same,mortality at 6.25 ppm,[1]; [4],0%
same,mortality at 12.5 ppm,[1]; [5],0%
same,mortality at 25 ppm,"[1]; 168 h, 25 ppm, 7 days after feeding",0%
same,mortality at 6.25 ppm,[1]; [6],0%
same,mortality at 12.5 ppm,[1]; [7],0%
same,mortality at 50 ppm,[1]; [8],60%
same,mortality at 50 ppm,Caenorhabditis elegans; 24 h,12%
same,mortality at 100 ppm,Caenorhabditis elegans; 24 h,14%
same,mortality at 200 ppm,Caenorhabditis elegans; 24 h,16%
same,mortality at 300 ppm,Caenorhabditis elegans; 24 h,20%
same,mortality at 400 ppm,Caenorhabditis elegans; 24 h,27%
same,mortality at 50 ppm,Caenorhabditis elegans; [9],10%
same,mortality at 100 ppm,Caenorhabditis elegans; [9],12%
same,mortality at 200 ppm,Caenorhabditis elegans; [9],14%
same,mortality at 300 ppm,Caenorhabditis elegans; [9],18%
same,mortality at 400 ppm,Caenorhabditis elegans; [9],26%
same,mortality at 50 ppm,Caenorhabditis elegans; 48 h,25%
same,mortality at 100 ppm,Caenorhabditis elegans; 48 h,30%
same,mortality at 200 ppm,Caenorhabditis elegans; 48 h,33%
same,mortality at 300 ppm,Caenorhabditis elegans; 48 h,39%
same,mortality at 400 ppm,Caenorhabditis elegans; 48 h,58%
same,mortality at 50 ppm,Caenorhabditis elegans; [10],23%
same,mortality at 100 ppm,Caenorhabditis elegans; [10],28%
same,mortality at 200 ppm,Caenorhabditis elegans; [10],31%
same,mortality at 300 ppm,Caenorhabditis elegans; [10],37%
same,mortality at 400 ppm,Caenorhabditis elegans; [10],57%
same,mortality at 50 ppm,Caenorhabditis elegans; 72 h,44%
same,mortality at 100 ppm,Caenorhabditis elegans; 72 h,48%
same,mortality at 200 ppm,Caenorhabditis elegans; 72 h,58%
same,mortality at 300 ppm,Caenorhabditis elegans; 72 h,65%
same,mortality at 400 ppm,Caenorhabditis elegans; 72 h,83%
same,mortality at 50 ppm,Caenorhabditis elegans; [11],41%
same,mortality at 100 ppm,Caenorhabditis elegans; [11],45%
same,mortality at 200 ppm,Caenorhabditis elegans; [11],56%
same,mortality at 300 ppm,Caenorhabditis elegans; [11],63%
same,mortality at 400 ppm,Caenorhabditis elegans; [11],81%
same,mortality at 50 ppm,Caenorhabditis elegans; 120 h,66%
same,mortality at 100 ppm,Caenorhabditis elegans; 120 h,73%
same,mortality at 200 ppm,Caenorhabditis elegans; 120 h,85%
same,mortality at 300 ppm,Caenorhabditis elegans; 120 h,90%
same,mortality at 400 ppm,Caenorhabditis elegans; 120 h,99%
same,mortality at 50 ppm,Caenorhabditis elegans; [12],64%
same,mortality at 100 ppm,Caenorhabditis elegans; [12],71%
same,mortality at 200 ppm,Caenorhabditis elegans; [12],84%
same,mortality at 300 ppm,Caenorhabditis elegans; [12],89%
same,mortality at 400 ppm,Caenorhabditis elegans; [12],99%
same,mortality at 50 ppm,Caenorhabditis elegans; 168 h,89%
same,mortality at 100 ppm,Caenorhabditis elegans; 168 h,93%
same,mortality at 200 ppm,Caenorhabditis elegans; 168 h,98%
same,mortality at 300 ppm,Caenorhabditis elegans; 168 h,100%
same,mortality at 400 ppm,Caenorhabditis elegans; 168 h,100%
same,mortality at 50 ppm,Caenorhabditis elegans; [13],89%
same,mortality at 100 ppm,Caenorhabditis elegans; [13],92%
same,mortality at 200 ppm,Caenorhabditis elegans; [13],98%
same,mortality at 300 ppm,Caenorhabditis elegans; [13],100%
same,mortality at 400 ppm,Caenorhabditis elegans; [13],100%
"O=C(O)c1cc([N+](=O)[O-])ccc1NCCCc1ccccc1 [NPPB, 5-Nitro-2-(3-phenylpropylamino)benzoic acid]",No. dead,"[1]; 6.25 ppm, 7 days after feeding",0
same,No. dead,[1]; [2],0
same,No. dead,"[1]; 12.5 ppm, 7 days after feeding",0
same,No. dead,[1]; [3],0
same,No. dead,"[1]; 25 ppm, 21 days after feeding",2
same,Days for pupation,[1]; 50 ppm,0 days
same,No. dead,"[1]; 50 ppm, 7 days after feeding",8
same,% wt reduction to control,"[1]; 50 ppm, 21 days after feeding",0%
same,"Mean wt of survived larvae, mg","[1]; 50 ppm, 21 days after feeding",0 mg
same,No. dead,"[1]; 50 ppm, 21 days after feeding",10
same,mortality at 6.25 ppm,[1]; [4],0%
same,mortality at 12.5 ppm,[1]; [5],0%
same,mortality at 50 ppm,"[1]; 168 h, 50 ppm, 7 days after feeding",80%
same,mortality at 6.25 ppm,[1]; [6],0%
same,mortality at 12.5 ppm,[1]; [7],0%
same,mortality at 25 ppm,"[1]; 504 h, 25 ppm, 21 days after feeding",20%
same,mortality at 50 ppm,[1]; [8],100%
same,mortality at 50 ppm,Caenorhabditis elegans; 24 h,14%
same,mortality at 100 ppm,Caenorhabditis elegans; 24 h,17%
same,mortality at 200 ppm,Caenorhabditis elegans; 24 h,20%
same,mortality at 300 ppm,Caenorhabditis elegans; 24 h,22%
same,mortality at 400 ppm,Caenorhabditis elegans; 24 h,24%
same,mortality at 50 ppm,Caenorhabditis elegans; [9],10%
same,mortality at 100 ppm,Caenorhabditis elegans; [9],14%
same,mortality at 200 ppm,Caenorhabditis elegans; [9],18%
same,mortality at 300 ppm,Caenorhabditis elegans; [9],20%
same,mortality at 400 ppm,Caenorhabditis elegans; [9],22%
same,mortality at 50 ppm,Caenorhabditis elegans; 48 h,26%
same,mortality at 100 ppm,Caenorhabditis elegans; 48 h,36%
same,mortality at 200 ppm,Caenorhabditis elegans; 48 h,44%
same,mortality at 300 ppm,Caenorhabditis elegans; 48 h,49%
same,mortality at 400 ppm,Caenorhabditis elegans; 48 h,53%
same,mortality at 50 ppm,Caenorhabditis elegans; [10],22%
same,mortality at 100 ppm,Caenorhabditis elegans; [10],33%
same,mortality at 200 ppm,Caenorhabditis elegans; [10],41%
same,mortality at 300 ppm,Caenorhabditis elegans; [10],46%
same,mortality at 400 ppm,Caenorhabditis elegans; [10],51%
same,mortality at 50 ppm,Caenorhabditis elegans; 72 h,47%
same,mortality at 100 ppm,Caenorhabditis elegans; 72 h,62%
same,mortality at 200 ppm,Caenorhabditis elegans; 72 h,73%
same,mortality at 300 ppm,Caenorhabditis elegans; 72 h,80%
same,mortality at 400 ppm,Caenorhabditis elegans; 72 h,84%
same,mortality at 50 ppm,Caenorhabditis elegans; [11],43%
same,mortality at 100 ppm,Caenorhabditis elegans; [11],59%
same,mortality at 200 ppm,Caenorhabditis elegans; [11],71%
same,mortality at 300 ppm,Caenorhabditis elegans; [11],78%
same,mortality at 400 ppm,Caenorhabditis elegans; [11],83%
same,mortality at 50 ppm,Caenorhabditis elegans; 120 h,70%
same,mortality at 100 ppm,Caenorhabditis elegans; 120 h,85%
same,mortality at 200 ppm,Caenorhabditis elegans; 120 h,93%
same,mortality at 300 ppm,Caenorhabditis elegans; 120 h,97%
same,mortality at 400 ppm,Caenorhabditis elegans; 120 h,100%
same,mortality at 50 ppm,Caenorhabditis elegans; [12],66%
same,mortality at 100 ppm,Caenorhabditis elegans; [12],83%
same,mortality at 200 ppm,Caenorhabditis elegans; [12],92%
same,mortality at 300 ppm,Caenorhabditis elegans; [12],97%
same,mortality at 400 ppm,Caenorhabditis elegans; [12],100%
same,mortality at 50 ppm,Caenorhabditis elegans; 168 h,93%
same,mortality at 100 ppm,Caenorhabditis elegans; 168 h,99%
same,mortality at 200 ppm,Caenorhabditis elegans; 168 h,100%
same,mortality at 300 ppm,Caenorhabditis elegans; 168 h,100%
same,mortality at 400 ppm,Caenorhabditis elegans; 168 h,100%
same,mortality at 50 ppm,Caenorhabditis elegans; [13],92%
same,mortality at 100 ppm,Caenorhabditis elegans; [13],99%
same,mortality at 200 ppm,Caenorhabditis elegans; [13],100%
same,mortality at 300 ppm,Caenorhabditis elegans; [13],100%
same,mortality at 400 ppm,Caenorhabditis elegans; [13],100%
